Experimental data: PMC11792023, “PNPO‐Mediated Oxidation of DVL3 Promotes Multiple Myeloma Malignancy and Osteoclastogenesis by Activating the Wnt/β‐Catenin Pathway” (Advanced Science, 2024)

Columns and labels:
[1] = target: T1, PNPO (pyridoxine-5'-phosphate oxidase) (Homo sapiens, UniProt Q9NVS9); test: microscale thermophoresis (MST) with RED-NHS-labelled purified protein; format: binding
T1 construct: PNPO WT, 6×His tag (pet-28a)
T1 sequence (Q9NVS9 1-261): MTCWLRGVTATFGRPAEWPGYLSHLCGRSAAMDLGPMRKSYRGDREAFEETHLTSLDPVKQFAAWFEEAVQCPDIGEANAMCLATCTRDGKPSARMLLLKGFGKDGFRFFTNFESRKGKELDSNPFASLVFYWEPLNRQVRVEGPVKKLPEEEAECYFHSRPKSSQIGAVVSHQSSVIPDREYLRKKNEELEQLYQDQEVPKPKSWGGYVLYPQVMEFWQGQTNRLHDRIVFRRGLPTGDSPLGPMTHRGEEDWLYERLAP

[2] = target: T1, PNPO (pyridoxine-5'-phosphate oxidase); test: microscale thermophoresis (MST); also HuProt […] proteome microarray with FITC-labelled celastrol; format: binding

SMILES | Kd [1] [nM] | microscale thermophoresis (MST); also HuProt 20K proteome microarray with FITC-l [2]
CC1=NN(c2ccc(C)c(C)c2)C(=O)/C1=N\Nc1cccc(-c2cccc(C(=O)O)c2)c1O [Eltrombopag] | 180 ± 90 | 
CC1=C(O)C(=O)C=C2C1=CC=C1[C@@]2(C)CC[C@@]2(C)[C@@H]3C[C@](C)(C(=O)O)CC[C@]3(C)CC[C@]12C [celastrol] |  | MST analysis confirmed a direct interaction between celastrol and PNPO
